{"source": "paper PMC9931709", "about": "“Uphill energy transfer mechanism for photosynthesis in an Antarctic alga” (Nature Communications, 2023)", "key": {"[1]": {"biological_target": "T1, Pc-frLHC (Prasiola crispa far-red light-harvesting Chl-binding protein complex) (Prasiola crispa, UniProt C0HLU5)", "T1 construct": "native complex purified from thylakoids of thalli harvested in Antarctica; beta-DDM; homo-undecamer, subunit about 29 kDa", "T1 sequence (C0HLU5 45-307, one chain of several)": "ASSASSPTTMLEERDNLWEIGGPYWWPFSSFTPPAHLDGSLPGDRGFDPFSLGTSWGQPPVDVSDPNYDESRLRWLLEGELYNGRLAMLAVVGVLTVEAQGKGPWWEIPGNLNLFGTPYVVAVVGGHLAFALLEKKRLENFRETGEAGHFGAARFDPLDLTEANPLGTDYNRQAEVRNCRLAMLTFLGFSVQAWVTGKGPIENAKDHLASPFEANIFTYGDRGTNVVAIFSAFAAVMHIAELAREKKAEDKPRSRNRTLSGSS", "assay": "cryo-EM structure, […] A; biochemical pigment analysis", "settings": "native pigment, pH 6.5"}, "[2]": {"biological_target": "Prasiola crispa far-red light-harvesting Chl-binding protein complex (Pc-frLHC) subunit (Prasiola crispa)", "assay": "cryo-EM structure; single-particle cryo-EM, C11 symmetry imposed; 6 mg protein/ml in 25 mM MES pH 6.5, 0.015% β-DDM, 0.5 M betaine; 3.13 Å"}}}
{"compound": "CC1=C[C@H](O)CC(C)(C)[C@H]1/C=C/C(C)=C/C=C/C(C)=C/C=C/C=C(C)/C=C/C=C(/C=C/C1=C(C)C[C@@H](O)CC1(C)C)CO", "note": "[loroxanthin]", "values": [{"measurement": "cryo-EM structure, 3.13 A; biochemical pigment analysis", "setting": "[1]; L2 site", "result": "Pc-frLHC binds only two carotenoids: violaxanthin (vio) and loroxanthin (loro)"}]}
{"compound": "CC(/C=C/C=C(C)/C=C/[C@@]12O[C@]1(C)C[C@@H](O)CC2(C)C)=C\\C=C\\C=C(C)\\C=C\\C=C(C)\\C=C\\[C@@]12O[C@]1(C)C[C@@H](O)CC2(C)C", "note": "[violaxanthin]", "values": [{"measurement": "cryo-EM structure, 3.13 A; biochemical pigment analysis", "setting": "[1]; L1 site", "result": "Pc-frLHC binds only two carotenoids: violaxanthin (vio) and loroxanthin (loro)"}]}
{"compound": "Prasiola crispa far-red light-harvesting Chl-binding protein complex (Pc-frLHC) subunit (natural protein)", "values": [{"measurement": "stoichiometry N", "setting": "[2]", "result": 11}]}
